# Test results as given in patent US9850183B2, “Conjugates derived from non-steroidal anti-inflammatory drugs and methods of use thereof in imaging” (Reiley Pharmaceuticals, Inc., priority 2014, dated 2017).
# What was measured:
# COX-2 = target: T1, COX-2 (Mus musculus, UniProt Q05769); test: Cell-based COX-2 assay (PGE2 in LPS/IFN-g stimulated RAW264.7 cells); conditions: RAW264.7 murine macrophages, 1 μg/ml LPS and 10 U/ml IFN-g for 7 h, PGE2 readout
# T1 construct: endogenous in cells; host or cells: RAW264.7 murine macrophages, stimulated with LPS and IFN-g
# T1 sequence (Q05769 18-604): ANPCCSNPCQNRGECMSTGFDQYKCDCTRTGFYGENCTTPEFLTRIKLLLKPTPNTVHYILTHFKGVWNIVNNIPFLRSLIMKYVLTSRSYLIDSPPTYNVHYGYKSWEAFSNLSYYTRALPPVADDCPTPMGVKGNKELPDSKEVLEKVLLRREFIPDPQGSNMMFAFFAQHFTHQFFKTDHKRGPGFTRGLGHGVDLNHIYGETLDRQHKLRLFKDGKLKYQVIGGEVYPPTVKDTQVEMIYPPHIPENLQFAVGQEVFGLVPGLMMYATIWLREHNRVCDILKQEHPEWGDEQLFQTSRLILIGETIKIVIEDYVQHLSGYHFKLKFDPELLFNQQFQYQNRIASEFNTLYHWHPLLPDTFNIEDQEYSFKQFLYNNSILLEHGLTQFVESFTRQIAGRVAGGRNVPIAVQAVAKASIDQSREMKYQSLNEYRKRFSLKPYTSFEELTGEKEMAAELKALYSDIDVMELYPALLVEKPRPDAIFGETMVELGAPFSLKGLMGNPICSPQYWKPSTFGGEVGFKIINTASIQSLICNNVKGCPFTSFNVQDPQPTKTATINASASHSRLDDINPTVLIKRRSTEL
# Protocol: RAW264.7 murine macrophages were obtained from the Cell Bank of Shanghai Institute of Biochemistry and Cell Biology, Chinese Academy of Sciences (Shanghai, China) and cultured in Dulbecco's modified Eagle's medium containing 100 U/ml penicillin and 100 μg/ml streptomycin at 37° C. in 5% CO2.
# RAW264.7 cells were plated at a density of 2.5×10^5/ml cells in a 96-well plate with 0.1 ml of culture medium per well and cultured overnight. The cells were pre-incubated for 30 min with various doses of compounds and stimulated for 7 h with 1 μg/ml LPS and 10 U/ml IFN-g. The cell culture supernatants were collected immediately following treatment and centrifuged at 1,000 rpm for 5 min to remove the particulate matter. PGE2 was determined using a Prostaglandin E2 assay kit (catalog no. 62P2APEB; Cisbio Co.,). 10 μL of cell supernatant was transferred to a 384-well low volume plate (e.g. Corning® 3544), 5 μL of PGE2-d2 was added, followed by 5 μL anti-PGE2 Cryptate as a negative control. Replace the standard by 10 μL of diluent and PGE2-d2 by 5 μL of reconstitution buffer, Cal0 (for positive control), replace the standard by 10 μL of diluent. Incubate at 4° C. overnight. After centrifuging at 1,000 rpm for 1 min, the dual fluorescence emissions of 615 and 665 nm with a 320 nm excitation were measured using an Envision plate reader (Perkin Elmer, Shelton, Conn.). The results are expressed as the ratio of 665 nm/615 nm emissions.
# (§1) Dose-response curves were generated using XLFit (IDBS, Surrey, UK) or Prism (GraphPad Software, La Jolla, Calif., US) to calculate IC50 values for each compound tested.
# human COX-2 = target: T2, human COX-2 (Homo sapiens, UniProt P35354); test: COX-2 enzyme assay (EIA kit, PGF2α readout); type: biochemical; conditions: human COX-2 enzyme, EIA; 15 min pre-incubation at 37° C.; read-out: COX-2 IC50 (μM) enzyme
# T2 construct: purchased Cayman Chemical Co., Ann Arbor, Mich., USA 701080
# T2 sequence (P35354 18-604): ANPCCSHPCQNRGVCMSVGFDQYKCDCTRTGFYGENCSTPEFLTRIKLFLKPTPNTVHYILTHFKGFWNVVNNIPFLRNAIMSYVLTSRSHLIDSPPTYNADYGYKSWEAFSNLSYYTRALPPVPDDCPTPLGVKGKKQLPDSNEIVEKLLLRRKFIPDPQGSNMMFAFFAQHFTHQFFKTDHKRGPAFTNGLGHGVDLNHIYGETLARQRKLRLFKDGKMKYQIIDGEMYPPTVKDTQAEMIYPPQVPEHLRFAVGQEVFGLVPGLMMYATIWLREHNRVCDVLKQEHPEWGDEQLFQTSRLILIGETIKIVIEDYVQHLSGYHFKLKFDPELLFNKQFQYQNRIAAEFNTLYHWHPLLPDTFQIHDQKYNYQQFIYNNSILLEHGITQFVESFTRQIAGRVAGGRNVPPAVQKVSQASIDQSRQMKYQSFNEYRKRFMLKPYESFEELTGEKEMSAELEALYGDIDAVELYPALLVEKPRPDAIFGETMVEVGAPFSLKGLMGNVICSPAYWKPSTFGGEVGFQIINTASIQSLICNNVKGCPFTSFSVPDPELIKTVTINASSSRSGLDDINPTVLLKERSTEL
# Protocol: (§2) The ability of compounds to inhibit ovine COX-1 and human COX-2 was determined using a commercially available enzyme immunoassay (EIA) kit (catalog no. 701090 (COX-1); 701080 (COX-2) Cayman Chemical Co., Ann Arbor, Mich., USA) according to the manufacturer's protocol. COX catalyzes the first step in the biosynthesis of AA to PGH2. PGF2α, produced from PGH2 by reduction with stannous chloride, was measured by EIA (ACE™ competitive EIA, Cayman Chemical, Ann Arbor, Mich., USA). Briefly, to a series of supplied reaction buffer solutions [960 μl 0.1 M Tris-HCl (pH 8.0) containing 5 mM EDTA and 2 mM phenol] with either COX-1 or COX-2 (10 μl) enzyme in the presence of heme (10 μl), 10 μl of various concentrations of test drug solutions were added. These solutions were incubated for 15 min at 37° C. and subsequently 10 μl AA solution (100 μM) was added. The COX reaction was stopped by the addition of 30 μl stannus chloride after 2 min, mixed immediately, supernatants were 2000 fold diluted. The produced PGF2α was measured by EIA. This assay is based on the competition between PGs and a PG-acetylcholinesterase conjugate (PG tracer) for a limited amount of PG antiserum. The amount of PG tracer that is able to bind to the PG antiserum is inversely proportional to the concentration of PGs in the wells since the concentration of the PG tracer is held at a constant while the concentration of PGs varies. The specific antiserum-PG complex bound to a mouse anti-rabbit IgG that had been previously attached to the well. The plate was washed to remove any unbound reagents and 200 μl Ellman's reagent (5,5′-dithiobis-(2-nitrobenzoic acid), which contains the substrate to acetylcholine esterase, was added to the well. The product of this enzymatic reaction generates a distinct yellow color that absorbs at 406 nm. The intensity of this color, determined by spectrophotometry, is proportional to the amount of PG tracer bound to the well, which is inversely proportional to the amount of PGs present in the well during the incubation. Percent inhibition was calculated by the comparison of the compounds treated to the various control incubations.
# as §1
# ovine COX-1 = target: T3, ovine COX-1 (Ovis aries, UniProt P05979); test: biochemical; conditions: ovine COX-1 enzyme, EIA; read-out: COX-1 IC50 (μm) enzyme
# T3 sequence (P05979 25-600): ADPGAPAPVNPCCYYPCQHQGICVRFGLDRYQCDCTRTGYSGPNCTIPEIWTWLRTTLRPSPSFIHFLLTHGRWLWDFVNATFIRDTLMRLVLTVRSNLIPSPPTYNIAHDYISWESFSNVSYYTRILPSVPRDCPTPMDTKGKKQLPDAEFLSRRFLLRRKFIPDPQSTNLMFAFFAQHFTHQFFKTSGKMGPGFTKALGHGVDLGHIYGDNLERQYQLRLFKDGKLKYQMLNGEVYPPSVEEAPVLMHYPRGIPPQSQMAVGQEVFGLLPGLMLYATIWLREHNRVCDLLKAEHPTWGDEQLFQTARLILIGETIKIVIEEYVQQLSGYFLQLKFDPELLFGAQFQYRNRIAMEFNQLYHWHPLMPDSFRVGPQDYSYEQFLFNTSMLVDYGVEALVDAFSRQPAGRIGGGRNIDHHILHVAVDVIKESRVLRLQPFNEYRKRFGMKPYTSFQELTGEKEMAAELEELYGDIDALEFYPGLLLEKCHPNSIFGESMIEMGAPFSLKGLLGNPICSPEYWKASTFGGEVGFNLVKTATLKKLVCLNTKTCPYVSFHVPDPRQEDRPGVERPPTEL
# Protocol: as §2, §1
compound,measurement,setting,value
COc1ccc2c(c1)c(CC(=O)NCCCOCCC[N+]13CC[S][Re-]14(=[O])[S]CC[N]4CC3)c(C)n2C(=O)c1ccc(Cl)cc1 (stereo not drawn) [Compound 306],IC50,COX-2,0.2 µM
same,IC50,human COX-2,0.7 µM
same,IC50,ovine COX-1,> 30000 nM
